From PubChem BioAssay AID1996
In brackets after ≈: the same amount, converted by molar mass.

conditions: buffer; pH 7.4; 200.0 µM

SMILES | solubility kinetic [µg/mL]
O=C(Cn1c(=O)cnc2ccccc21)Nc1cc(Cl)ccc1N1CCOCC1 | 51.6 (≈ 129 µM)
Cc1onc(-c2ccccc2Cl)c1C(=O)Nc1ccccc1O | 17.2 (≈ 52.3 µM)
CCOC(=O)c1csc(NC(=O)CN2CCOCC2)n1 | > 44.9
CCOC(=O)CSc1nc(-c2ccccc2)nc2ccc(C)cc12 | < 0.4
Cc1[nH]c2ccccc2c1C(c1ccncc1)N1CCCCC1 (stereo not drawn) | > 45.8
Cc1ccc(-c2csc(NC(=O)CN3CC(C)OC(C)C3)n2)cc1 (stereo not drawn) | 29.5 (≈ 85.4 µM)
Cc1ccc(C(=O)N/C(=C/c2ccco2)C(=O)N2CCC(C)CC2)cc1 | > 52.9
COc1ccc(N2CCN(S(=O)(=O)c3cnc[nH]3)CC2)cc1 | 3 (≈ 9.31 µM)
CCN(CC)Cc1ccccn1.Cl | 29.2
COc1ccccc1NC(=O)c1ccc(NC(=O)C2CC2C)cc1 (stereo not drawn) | 10.3 (≈ 31.8 µM)
O=c1[nH]c2cccc(F)c2n2cccc12 | 3.2 (≈ 15.8 µM)
COc1ccccc1NC(=O)C1(c2ccccc2)CCCC1 | 7.9 (≈ 26.7 µM)
COc1ccccc1NC(=O)c1cccc2c(Br)cccc12 | < 0.8
COc1c(C)cc(C(=O)C2CCCN(C(=O)/C=C/c3ccccn3)C2)cc1C (stereo not drawn) | 40.6 (≈ 107 µM)
O=C(CC1CCCC1)N1CCN(S(=O)(=O)c2ccccc2)CC1 | > 50.5
COc1ccccc1OCCCC(=O)Nc1nccs1 | 23.4 (≈ 80 µM)
O=C(CC1SC(N2CCOCC2)=NC1=O)Nc1ccc(F)cc1 (stereo not drawn) | > 50.6
O=C(Nc1ccc(C(=O)OC2CCCCC2)cc1)c1ccncc1 | 2.8 (≈ 8.63 µM)
CCN(CC(=O)Nc1ccc2c(c1)OCCO2)CC(=O)Nc1ccc(C)c(S(=O)(=O)N(C)C)c1 | 35.3 (≈ 72 µM)
NC1=NC(=Nc2ccc(S(N)(=O)=O)cc2)c2ccccc21 | > 45.1
Cc1ccc(Nc2nc(N)nc(CCl)n2)cc1 | > 37.5
Cc1ccc(NC(=O)C2CCCN2C(=O)NCc2ccccc2)cc1 (stereo not drawn) | 5 (≈ 14.8 µM)
COc1ccccc1CCNC(C)CCc1ccc(O)cc1 (stereo not drawn) | 33.2 (≈ 111 µM)
CCOc1ccc(C(c2c(O)nc(SC)[nH]c2=O)c2c(O)nc(SC)[nH]c2=O)cc1 | > 67.3

SMILES | solubility kinetic [µg/mL]
CN(Cc1ccc2c(c1)OCCO2)C(=O)CSc1ncnc2sccc12 | 41.8 (≈ 108 µM)
Brc1ccccc1-c1cnco1 | 8.5 (≈ 37.9 µM)
COCCSc1ccccc1C(=O)N1CCc2ccccc21 | 44.5 (≈ 142 µM)
COC(=O)Cn1c(N2CCCC2)nc2c1c(=O)n(C)c(=O)n2C | > 48.2
O=C(O)c1cc(-c2cccs2)nc2ccc(F)cc12 | > 41
O=C(Cc1csc(-c2ccccc2)n1)NCC(=O)Nc1ccc(F)c(F)c1F | 9 (≈ 22.2 µM)
CC(=O)c1cc(N2CCOCC2)ccc1[N+](=O)[O-] | > 37.5
Cn1c(C(=O)N2CCN(c3ccc(F)cc3)CC2)cc2ccccc21 | 2.8 (≈ 8.3 µM)
CC1CCCN1CC#CC(O)(c1ccccc1)c1ccccc1.Cl (stereo not drawn) | 46.9
Cc1ccc(C(=O)NCCc2ccccc2)cc1N1CCCC1=O | > 48.4
Cc1ccc(NCC(=O)N/N=C/c2cc(O)ccc2[N+](=O)[O-])cc1 | > 49.2
Cc1nc(NC(=O)CCN2C(=O)C3CC=CCC3C2=O)sc1C (stereo not drawn) | > 50
CCS(=O)(=O)c1ccc(O)c(NC(=O)/C=C/c2ccccc2)c1 | > 49.7
COc1ccc(OC)c(S(=O)(=O)NCCc2csc(-c3cccnc3)n2)c1 | 59 (≈ 145 µM)
CCOC(=O)CN1C(=O)S/C(=C/c2ccco2)C1=O | 21.2 (≈ 75.4 µM)
C=CCOn1c(=O)c(-c2ccc(OCC)cc2)[n+]([O-])c2ccccc21 | 6.3 (≈ 18.6 µM)
CC1CCc2onc(C(=O)NCc3ccco3)c2C1 (stereo not drawn) | 22.6 (≈ 86.8 µM)
Cc1ccc(CNc2nc3ccccc3n2C)cc1 | > 37.7
COc1ccc(C2c3c(nc[nH]c3=O)Oc3nc[nH]c(=O)c32)cc1 | > 48.6
NC(=O)CSc1nc(C2CC2)nc2sc3c(c12)CCCC3 | < 0.2
CC(=O)Nc1cccc(OCCCNC(=O)c2ccc(F)cc2)c1 | 38.9 (≈ 118 µM)
CCOc1ccc(S(=O)(=O)NCC2CCCO2)c2ccccc12 (stereo not drawn) | 42.2 (≈ 126 µM)
Cc1ccc(S(=O)(=O)N2CCC(C(=O)N3CCC3)CC2)cc1 | 47.4 (≈ 147 µM)
O=C(Oc1ccc(C(=S)N2CCOCC2)cc1)c1ccc(F)cc1 | 2.8 (≈ 8.11 µM)

SMILES | solubility kinetic [µg/mL]
O=C(O)C1CC1C(=O)Nc1nc2c(Cl)cccc2s1 (stereo not drawn) | > 44.5
Cc1ccc(C(=O)NC2CCCC2)s1 | 29.9 (≈ 143 µM)
CCN(CC)S(=O)(=O)c1cccc(C(=O)N[C@H](C(=O)NC2=NCCS2)C(C)C)c1 | 64.5 (≈ 146 µM)
CN1C(=O)Cc2cc(S(=O)(=O)NCCc3ccccc3)ccc21 | 39.1 (≈ 118 µM)
Cc1ccc([N+](=O)[O-])cc1S(=O)(=O)NCCc1cn2ccccc2n1 | 35 (≈ 97.1 µM)
CC(C)Oc1ccc(/C=C/C(=O)NCC2COc3ccccc3O2)cc1 (stereo not drawn) | 2.8 (≈ 7.92 µM)
CN1CCN(C(=O)c2cc([N+](=O)[O-])cc([N+](=O)[O-])c2)CC1 | 31.4 (≈ 107 µM)
O=C(C1CC1)N1CCN(c2ccc(O)cc2)CC1 | > 36.9
COC(=O)c1cc(CSc2ncnc3sccc23)oc1C | 4.3 (≈ 13.4 µM)
CN1CCN(c2ccc(CNS(=O)(=O)c3ccsc3)cc2)CC1 | 22.7 (≈ 64.6 µM)
COc1ccccc1C(=O)NCCC(=O)N1CCCCC1 | > 43.6
CC(=Nc1ccccc1C(F)(F)F)c1ccncc1 | < 0.3
CC(=O)c1c(C)[nH]c(C(=O)N2CCCC(C)C2)c1C (stereo not drawn) | > 39.4
CCc1cccc(C)c1NC(=O)N(C)C1CCCCC1 | 35.6 (≈ 130 µM)
COc1cccc(NC(=O)NCc2ccccc2Cl)c1 | 1 (≈ 3.44 µM)
Cc1cc(C)cc(Nc2ccc(C(=O)O)cc2[N+](=O)[O-])c1 | > 42.9
CCOC(=O)N1CCC(NS(=O)(=O)c2ccc(C)cc2)CC1 | > 49
CC(C)[C@H](NS(=O)(=O)c1ccccc1)C(=O)OCC(=O)Nc1cccc(S(N)(=O)=O)c1 | 61.6 (≈ 131 µM)
CC1CN(C)CCC1OC(=O)c1ccccc1.Cl (stereo not drawn) | > 40.5
O=[N+]([O-])c1ccccc1NCc1ccccc1Cl | < 0.3
O=C(c1ccc(Sc2ccccc2)c([N+](=O)[O-])c1)N1CCOCC1 | 49.9 (≈ 145 µM)
Cc1ccc(C(=O)O)cc1NS(=O)(=O)c1ccc2c(c1)oc(=O)n2C | 44.8 (≈ 124 µM)
CN(C)c1nc(N(C)C)nc(N2CC(=O)N(c3ccccc3)C2=N)n1 | 8.4 (≈ 24.7 µM)
O=C(NC1CC1)C1CCN(C(=O)c2ccccc2Cl)CC1 | > 46

SMILES | solubility kinetic [µg/mL]
Cc1c(C(=O)O)cccc1-c1ccc(/C=C2\SC(=O)NC2=O)o1 | > 49.4
O=C(c1cccc(NS(=O)(=O)c2cccc(F)c2)c1)N1CCCC1 | 51 (≈ 146 µM)
O=C(NC1CCN(C(=S)Nc2ccccc2)CC1)C1CCCCC1 | 2.1 (≈ 6.08 µM)
O=C(Nc1cc([N+](=O)[O-])ccc1N1CCCC1)c1ccccc1 | 1.5 (≈ 4.82 µM)
Cc1ccoc1C(=O)Nc1ccc2ccccc2c1 | 7.5 (≈ 29.8 µM)
CCCCN1C(C(=O)Nc2cc(C)on2)=C(O)c2ccccc2S1(=O)=O | > 56.6
Cc1ccc(NC(=O)CN2CCOCC2)c(Br)c1 | > 47
O=C(O)c1cc(N2CCOCC2)nc2ccccc12 | 37.9 (≈ 147 µM)
Cc1ccccc1CC(=O)Nc1cccnc1 | > 33.9
CCOc1ccc2nc(NC(=O)c3ccc(C)o3)sc2c1 | 0.6 (≈ 1.98 µM)
Clc1nccc(N2CCN(c3ccccc3Cl)CC2)n1 | 13.3 (≈ 43 µM)
O=C(O)CCn1c(=S)n(CCC(=O)O)c2ccccc21 | > 44.1
CCn1c(SCC(=O)NC2CCCC2)nnc1-c1cccnc1 | > 49.7
CCOc1ccccc1C(=O)NC(C(=O)NCCc1ccccn1)C(C)C (stereo not drawn) | > 55.4
COc1ccccc1NC(=O)COC(=O)/C=C/c1cccs1 | 4.4 (≈ 13.9 µM)
CCOC(=O)C1CCN(S(=O)(=O)c2ccc(Cl)nc2)CC1 | 47.3 (≈ 142 µM)
O=C(CCN1C(=O)c2ccccc2C1=O)CN1CCOCC1 | 36.5 (≈ 121 µM)
Cc1ccc(C)c(NC(=O)CN(C)C(C)C(=O)N2CC(C)CC(C)C2)c1 (stereo not drawn) | 47.9 (≈ 133 µM)
Cc1cccc(NC(=O)CCNC(=O)c2ccccc2Cl)n1 | > 47.7
N/C(CC(=O)Nc1ccc(F)cc1F)=N\OC(=O)c1cccs1 | 16.3 (≈ 48 µM)
COc1ccc(S(=O)(=O)N2CCOCC2)cc1NC(=O)CN1C(=O)CN(C)C1=O | > 64
Fc1ccc(CN2CCCN(C(=S)Nc3ccc(F)cc3)CC2)cc1 | > 54.2
CCOC(=O)CSc1nc(C)c2cc(C)c(C)cc2n1 | 6 (≈ 20.7 µM)
Cc1cnc(NC(=O)c2ccccn2)s1 | 29.3 (≈ 134 µM)

SMILES | solubility kinetic [µg/mL]
C#CCNC(=O)c1ccc(OCc2ccccc2)cc1Cl | 41.7 (≈ 139 µM)
O=C(Nc1nc2ccccc2[nH]1)c1cccc(F)c1 | 6.6 (≈ 25.9 µM)
Cc1ccccc1CC1(CO)CCCN(C(=O)CCC(F)(F)F)C1 (stereo not drawn) | 48.3 (≈ 141 µM)
O=C1CN(C(=O)CNC(=O)c2ccc(Cl)cc2Cl)CCN1 | 47.4 (≈ 144 µM)
Cc1ccc(C)c(OCCC(=O)OCC(=O)Nc2cc(S(=O)(=O)N3CCCCC3)ccc2C)c1 | 13.9 (≈ 28.4 µM)
Cc1cc(C(=O)CSc2nc(N)cc(=O)[nH]2)c(C)n1CC1CCCO1 (stereo not drawn) | > 54.4
CCCN1CCC(NC(=O)C2CCCCC2C(=O)O)CC1 (stereo not drawn) | > 44.5
COC(=O)c1ccsc1NC(=O)CN1CCN(c2ncccn2)CC1 | 4.1 (≈ 11.3 µM)
N#Cc1c(N)nc2c(c1-c1ccc(F)cc1)CCC2 | 3.7 (≈ 14.6 µM)
CNC(=O)CSc1nnc(-c2ccco2)n1-c1cc(C)ccc1C | > 51.4
CCCS(=O)(=O)N1CCCC(C(=O)c2cccc(Cl)c2)C1 (stereo not drawn) | 44.7 (≈ 136 µM)
CCn1nc(C(=O)NNC(=O)C(Cc2ccccc2)NC(N)=O)c2ccccc2c1=O (stereo not drawn) | > 63.4
O=C(Nc1nc2ccccc2[nH]1)c1cccc(Br)c1 | 0.6 (≈ 1.9 µM)
Cc1cccc(OCCCN2C(=O)C(=O)c3cc(C)ccc32)c1 | 10.7 (≈ 34.6 µM)
O=C(COC(=O)c1ccc(N2CCCC2=O)cc1)c1ccccc1 | 3.7 (≈ 11.4 µM)
CN(C)c1nc(Nc2ccc(F)cc2)nc(Oc2ccc(F)cc2)n1 | < 0.1
NCCCS(=O)(=O)O | < 0.3
O=C(Nc1cccnc1Cl)c1cc(-c2ccccc2O)on1 | 0.9 (≈ 2.85 µM)
CCc1nonc1NC(=O)c1oc2cc(C)c(C)cc2c1C | 0.3 (≈ 1 µM)
C(/C=C/c1ccccn1)=C\c1ccccc1 | 0.7 (≈ 3.38 µM)
C/C(=N\NC(=O)c1cc(C)nc2ccccc12)c1ccco1 | > 44
Cc1cc(OCCN2CCOCC2)ccc1C(C)C.Cl | 34.2
